{"source": "patent US20060009478A1", "about": "“Methods for the treatment of back pain” (priority 2003, published 2006)", "key": {"[1]": {"system": "patients with moderate to severe chronic pain due to osteoarthritis of the hip or knee", "test": "Quality of analgesia, 3-week osteoarthritis study", "type": "in vivo, human", "protocol": "Quality of Analgesia was assessed weekly at clinic visits. The patient was prompted with the question, “How would you rate the quality of your pain relief at this time?”, and responses were selected from poor, fair, good, very good, and excellent.\nThe global assessment, quality of analgesia, and pain control, recorded at the end of each week, were summarized in terms of category proportions.\nFor secondary analysis of data, pain intensity changes, SF-12, and WOMAC were analyzed with the ANOVA methods as described above. Within treatment arms, weeks were compared in pairwise fashion using paired-sample methods. The global assessments, quality of analgesia ratings, and pain control was analyzed at each week, globally and in pairwise fashion, using the Cocharan-Mantel-Haenszel row mean scores (CMH-RMS) test, using equally spaced scores. An “observed data” analysis, without any data imputation, was conducted on pain intensity changes, global assessments, quality of analgesia ratings, pain control, SF-12, and WOMAC using the same analysis methods described previously."}, "[2]": {"system": "patients with moderate to severe chronic pain due to osteoarthritis of the hip or knee", "test": "WOMAC Osteoarthritis Index (pain, stiffness, physical function subscales, total score), 3-week osteoarthritis study", "type": "in vivo, human", "conditions": "LOCF; for WOMAC osteoarthritis physical function subscale, actual value, mean / WOMAC osteoarthritis physical function subscale, actual value, median / WOMAC osteoarthritis stiffness subscale, actual value, mean / WOMAC osteoarthritis stiffness subscale, actual value, median / WOMAC osteoarthritis total score, actual value, mean / WOMAC osteoarthritis total score, actual value, median / WOMAC osteoarthritis pain subscale, actual value, mean / WOMAC osteoarthritis pain subscale, actual value, median: intent to treat population", "source_text": "Back pain can be associated with an arthritic condition or inflammation associated with chronic conditions. […] The methods comprise administering to a human subject an amount of an opioid antagonist or the combination of an opioid agonist and an opioid antagonist that is effective to enhance potency of the agonist and/or to alleviate one or more symptoms or signs of an arthritic condition or inflammation associated with a chronic condition, including for example, as measured by a suitable index, scale or measure. The attenuation of one or more symptoms or signs of an arthritic condition or of inflammation associated with a chronic condition may be measured on the WOMAC Osteoarthritis Index or one of its subscales (in other words, the pain, stiffness, or physical function subscales of the WOMAC Osteoarthritis Index). Any suitable version of the WOMAC OA Index may be used, including, for example, Version 3.0 or Version 3.1. Any suitable scale may be used as well. The WOMAC OA Index is available in Likert and Visual Analog scaled formats, either of which may be employed in the present methods. […] The WOMAC values represent a subjective surrogate marker. Alternatively or additionally, the attenuation of one or more symptoms or signs may be measured on another suitable index, scale or measure, such the Australian/Canadian (AUSCAN) Osteoarthritis Hand Index or the Osteoarthritis Global Index (OGI). The AUSCAN 3.1 Index and User Guide are currently available from http://www.womac.org/contact/index.cfm, as are the WOMAC 3.1 Osteoarthritis Index and User Guide. Another suitable measure of attenuation is the Definition of Improvement in Rheumatoid Arthritis described in Felson et al., Arthritis & Rheumatism 38:727-735 (1995) incorporated herein by reference. This measure, which also may be designated as the ACR (American College of Rheumatology) 20 improvement, is a composite defined as both improvement of 20% in the number of tender and number of swollen joints, and a 20% improvement in three of the following five: patient global, physician global, patient pain, patient function assessment, and C-reactive protein (CRP). Another suitable measure is described by Paulus et al., Arthritis & Rheumatism 33:477-484 (1990) which is incorporated herein by reference. Paulus et al. provides a definition of improvement based on a set of measures that discriminate between active second-line drug treatment and placebo. These include a 20% improvement in morning stiffness, erythrocyte sedimentation rate (ESR), joint tenderness score, and joint swelling score and improvement by at least 2 grades on a 5-grade scale (or from grade 2 to grade 1) for patient and physician global assessments of current disease severity. Current disease severity can be measured in a variety of ways, including patient or physician global assessments, patient or physician assessments of joint tenderness, joint swelling stiffness, pain, or physical function, cytokine levels, B-cell or T-cell subtype ratios, erythrocyte sedimentation rate (ESR), or C-reactive protein. Suitable measures of attenuation of one or more symptoms or signs, of inhibiting the progression of an arthritic condition or chronic condition, or of reversing tissue or cellular damage include measuring current disease severity. Other indexes, definitions, measures, or scales may also be used for measuring attenuation of one or more symptoms or signs, inhibition of progression, or reversal of tissue or cellular damage.\nA daily diary was to be utilized to record overall pain intensity (PI) and other signs and symptoms."}, "[3]": {"conditions": "ITT (N = 102 per active group), LOCF"}}}
{"smiles": "COc1ccc2c3c1O[C@H]1C(=O)CC[C@@]4(O)[C@@H](C2)N(C)CC[C@]314", "note": "[OXY QID, oxycodone]", "values": [{"measurement": "Quality of analgesia Week 1: EXCELLENT (4), number (%) of patients", "setting": "[1]; [3]", "result": "3 (2.9%)"}, {"measurement": "Quality of analgesia Week 1: FAIR (1), number (%) of patients", "setting": "[1]; [3]", "result": "31 (30.4%)"}, {"measurement": "Quality of analgesia Week 1: GOOD (2), number (%) of patients", "setting": "[1]; [3]", "result": "18 (37.3%)"}, {"measurement": "Quality of analgesia Week 1: POOR (0), number (%) of patients", "setting": "[1]; [3]", "result": "18 (17.6%)"}, {"measurement": "Quality of analgesia Week 1: VERY GOOD (3), number (%) of patients", "setting": "[1]; [3]", "result": "8 (7.8%)"}, {"measurement": "Quality of analgesia Week 2: EXCELLENT (4), number (%) of patients", "setting": "[1]; [3]", "result": "4 (3.9%)"}, {"measurement": "Quality of analgesia Week 2: FAIR (1), number (%) of patients", "setting": "[1]; [3]", "result": "29 (28.4%)"}, {"measurement": "Quality of analgesia Week 2: GOOD (2), number (%) of patients", "setting": "[1]; [3]", "result": "30 (29.4%)"}, {"measurement": "Quality of analgesia Week 2: POOR (0), number (%) of patients", "setting": "[1]; [3]", "result": "19 (18.6%)"}, {"measurement": "Quality of analgesia Week 2: VERY GOOD (3), number (%) of patients", "setting": "[1]; [3]", "result": "16 (15.7%)"}, {"measurement": "Quality of analgesia Week 3: EXCELLENT (4), number (%) of patients", "setting": "[1]; [3]", "result": "5 (4.9%)"}, {"measurement": "Quality of analgesia Week 3: FAIR (1), number (%) of patients", "setting": "[1]; [3]", "result": "23 (22.5%)"}, {"measurement": "Quality of analgesia Week 3: GOOD (2), number (%) of patients", "setting": "[1]; [3]", "result": "32 (31.4%)"}, {"measurement": "Quality of analgesia Week 3: POOR (0), number (%) of patients", "setting": "[1]; [3]", "result": "23 (22.5%)"}, {"measurement": "Quality of analgesia Week 3: VERY GOOD (3), number (%) of patients", "setting": "[1]; [3]", "result": "15 (14.7%)"}, {"measurement": "Patients reporting a quality of analgesia assessment of very good or excellent at Week 3", "setting": "[1]; Week 3", "result": 19.6, "unit": "%"}, {"measurement": "WOMAC osteoarthritis pain subscale, actual value at Week 1, mean", "setting": "[2]; ITT", "result": 263.2}, {"measurement": "WOMAC osteoarthritis pain subscale, actual value at Week 1, median", "setting": "[2]; ITT", "result": 279.0}, {"measurement": "WOMAC osteoarthritis physical function subscale, actual value, mean", "setting": "[2]; Week 1", "result": 891.8}, {"measurement": "WOMAC osteoarthritis physical function subscale, actual value, median", "setting": "[2]; Week 1", "result": 930.5}, {"measurement": "WOMAC osteoarthritis stiffness subscale, actual value, mean", "setting": "[2]; Week 1", "result": 120.3}, {"measurement": "WOMAC osteoarthritis stiffness subscale, actual value, median", "setting": "[2]; Week 1", "result": 129.5}, {"measurement": "WOMAC osteoarthritis total score, actual value, mean", "setting": "[2]; Week 1", "result": 1275.3}, {"measurement": "WOMAC osteoarthritis total score, actual value, median", "setting": "[2]; Week 1", "result": 1312.5}, {"measurement": "WOMAC osteoarthritis pain subscale, actual value, mean", "setting": "[2]; Week 2", "result": 245.0}, {"measurement": "WOMAC osteoarthritis pain subscale, actual value, median", "setting": "[2]; Week 2", "result": 227.5}, {"measurement": "WOMAC osteoarthritis physical function subscale, actual value, mean", "setting": "[2]; Week 2", "result": 847.6}, {"measurement": "WOMAC osteoarthritis physical function subscale, actual value, median", "setting": "[2]; Week 2", "result": 880.0}, {"measurement": "WOMAC osteoarthritis stiffness subscale, actual value, mean", "setting": "[2]; Week 2", "result": 111.4}, {"measurement": "WOMAC osteoarthritis stiffness subscale, actual value, median", "setting": "[2]; Week 2", "result": 119.5}, {"measurement": "WOMAC osteoarthritis total score, actual value, mean", "setting": "[2]; Week 2", "result": 1204.0}, {"measurement": "WOMAC osteoarthritis total score, actual value, median", "setting": "[2]; Week 2", "result": 1222.5}, {"measurement": "WOMAC osteoarthritis pain subscale, actual value, mean", "setting": "[2]; Week 3", "result": 238.7}, {"measurement": "WOMAC osteoarthritis pain subscale, actual value, median", "setting": "[2]; Week 3", "result": 225.0}, {"measurement": "WOMAC osteoarthritis physical function subscale, actual value, mean", "setting": "[2]; Week 3", "result": 820.0}, {"measurement": "WOMAC osteoarthritis physical function subscale, actual value, median", "setting": "[2]; Week 3", "result": 867.0}, {"measurement": "WOMAC osteoarthritis stiffness subscale, actual value, mean", "setting": "[2]; Week 3", "result": 106.3}, {"measurement": "WOMAC osteoarthritis stiffness subscale, actual value, median", "setting": "[2]; Week 3", "result": 109.0}, {"measurement": "WOMAC osteoarthritis total score, actual value, mean", "setting": "[2]; Week 3", "result": 1164.9}, {"measurement": "WOMAC osteoarthritis total score, actual value, median", "setting": "[2]; Week 3", "result": 1191.0}]}
